Data reported in publication PMC4116523, “Novel peptides suppress VEGFR-3 activity and antagonize VEGFR-3-mediated oncogenic effects” (Oncotarget, 2014).
Bridges are numbered along the chain shown (N, C = ends). Where no end group is shown, it is not given here.

Assays:
[1] = tested on: human soluble protein kinase VEGFR-3 (sVEGFR-3); experiment: VEGFR-3 kinase assay ([32P]ATP, poly(Glu:Tyr); Eurofins Panlabs); format: biochemical; settings: peptides screened at 10 μM, 0.1 μg/ml enzyme, HEPES pH 7.4, 15 min preincubation 37°C, 10 μM ATP, [γ32P]ATP, 30 min, Figure 1B
Experimental: Kinase assays were performed as previously described. Briefly, human soluble protein kinase VEGFR-3 (sVEGFR-3) that was expressed in insect cells was used for the kinase assays. The candidate peptides were preincubated with 0.1 μg/ml of enzyme in modified HEPES buffer pH 7.4 for 15 minutes at 37°C. The reaction was initiated by addition of 0.2 mg/ml poly(Glu:Tyr), 10 μM ATP and 0.25 μCi [γ^32P]ATP for another 30 minute incubation period and terminated by further addition of 3% H3PO4. Aliquots were removed and counted to determine the amount of [^32P] Poly(Glu:Tyr) that formed. Compounds were screened at 10 μM. All peptides were analyzed by Eurofins Panlabs Taiwan Ltd.

sVEGFR-3 = experiment: Competition assay of synthesized peptides with rhVEGF-C for binding to plate-bound sVEGFR-3 (ELISA); set-up: species or system human; settings: sVEGFR-3 250 ng/mL coated; peptide 6 h RT, then rhVEGF-C 300 ng/mL 6 h; ELISA A450/650; mean of three independent experiments; Figure 1A
Experimental: Soluble VEGFR-3 (sVEGFR-3) (250 ng/mL) (Angio-Proteomie, Boston, MA) was immobilized on 96-well plates and blocked with phosphate buffer containing 1% BSA for 1 hour at room temperature. In competition experiments, peptides were incubated with the VEGFR-3-coated plates for 6 hours at room temperature. After incubation, human recombinant VEGF-C protein (rhVEGF-C, 300 ng/mL, 100 μL) was added directly to the wells without removal of the peptides and then incubated at room temperature for 6 hours. The plates were thoroughly washed with 0.1% BSA/PBS buffer (pH 8.5), and anti–VEGF-C Ab was added at 4°C for 24 hours. Biotin-conjugated goat anti-rabbit IgG antibody was added for 1 hour. HRP-conjugated streptavidin was then added for 30 minutes. The free streptavidin conjugate was washed away and freshly prepared substrate solution (TMB) was then added to each well. The reaction was allowed to stand for 15 minutes, and the color development was stopped by the addition of H3PO4 (1.0 mol/L). The absorbance at 450 nm was read with a reference wavelength of 650 nm (A450/650).

SOX2 = SOX2 expression by reverse transcription PCR in A549 spheres; format: cell-based, human; settings: A549 spheres grown 10 days; Figure S6
Experimental: Total RNA was isolated after A549 spheres had grown for 10 days by using Trizol (Invitrogen, Carlsbad, CA), and cDNA were synthesized with Oligo dT (Thermo Scientific, Brookfield, WI). The specific primers for SOX2 were 5'-TACAACATGATGGAGACG-3' and 5'-[…]-3'. The reaction was cycled at 95°C for 40 seconds, then 56°C for 40 seconds, and then 72°C for 30 seconds for 30 cycles followed by a final extension of 72°C for 5 minutes.

VEGFR-3 [2] = experiment: KIRA-ELISA of tyr-phosphorylated VEGFR-3 in VEGF-C-treated H928 lung cancer cells; format: cell-based, human; settings: serum-starved, peptide 30 min then rhVEGF-C 15 min, Figure 1C
Experimental: H928 lung cancer cells (2×10^5) were cultured in 24-well plates and serum-starved for 24 hours. Cells were pretreated with candidate peptide for 30 minutes and then treated with rhVEGF-C for 15 minutes. Cells were solubilized in RIPA lysis buffer for 60 minutes. Another 85 μl of cell lysate was transferred to an ELISA well that was coated with VEGFR-3 and incubated for 2 hours. After the plates were washed, biotinylated-4G10 antibody (500 ng/ml, 100 μl) was added and incubated for 2 hours. After the plates were washed, HRP-conjugated streptavidin was then added for 30 minutes. The free avidin conjugate was washed away and freshly prepared substrate solution (TMB) was then added to each well. The reactions were allowed to proceed for 10 minutes, and the color development was stopped by the addition of H3PO4 (1.0 mol/L). The absorbance at 450 nm was read with a reference wavelength of 650 nm (A450/650).

A549 lung cancer cells = experiment: Boyden chamber migration/invasion assay, A549; format: cell-based, human; settings: peptide 100 μM, 24 hours, uncoated / matrigel-coated transwells, Figure 3
Experimental: (§1) Boyden chamber cell migration assays were performed using uncoated transwells and matrigel-coated transwells with membranes (8 μm pore-size) (Becton Dickinson, Mountain View, CA). The chambers were inserted into 24-well culture plates that contained DMEM/F12 with 10% fetal bovine serum. The cells were pretreated with peptide (100 μM) in serum-free DMEM/F12 medium and were loaded into the transwells. After 24 hours, non-migrated cells were removed with a cotton swab and the cells were fixed with methanol for 15 min and stained with crystal violet. The migrated cells were quantified by blind counting of the migrated cells on the lower surface of the membrane from at least 10 fields per chamber using a 20X objective. All migration and invasion assays were normalized to the proliferation rate.

[3] = tested on: MDA-MB-231 breast cancer cells; experiment: Boyden chamber migration/invasion assay, MDA-MB-231; format: cell-based, human; settings: peptide 100 μM, 24 hours, uncoated / matrigel-coated transwells, Figure 3
Experimental: as §1

A549 cells [4] = experiment: Sphere-forming assay (tumor initiating cells), A549; format: cell-based, human; settings: peptide 200 μM, rhVEGF-C 200 ng/mL, 10 days non-adherent, Figure S5A
Experimental: (§2) A549 and MCF-7 cells were serum-starved for 24 hours. The cells were pretreated with candidate peptides (200 μM) in the presence or absence of rhVEGF-C for 24 hours. The cells were trypsinized and mechanically dissociated to generate single cells that were then seeded at a density of 1×10^3 cells/ml in serum-free DMEM/F12 medium (Invitrogen, Carlsbad, CA) that was freshly supplemented with epidermal growth factor (20 ng/ml), basic fibroblast growth factor (20 ng/ml) (R&D Systems, Minneapolis, MN), 1X B27 supplement, 1X N2 supplement (Invitrogen, Carlsbad, CA) in the presence or absence of rhVEGF-C (200 ng/mL) and candidate peptides (200 μM) in non-adherent plates for 10 days. Quantification of sphere formation was determined by measuring the percentage of 5000 spheres.

Src = experiment: Western blot of Src phosphorylation (VEGFR-3-mediated signaling pathway); format: cell-based, human; settings: A549 and 293T/VEGFR-3 cells, rhVEGF-C, Figure 2A, 2B
Experimental: (§3) Cells were incubated in serum-free DMEM/F12 for 24 hours before treatment with or without rhVEGF-C (100 ng/mL). Cells were lysed in RIPA buffer [Tris-HCl (50 mM; pH 7.5), NaCl (120 mM), NP-40 (0.5%), Na3VO4 (200 mM), EDTA (100 mM), sodium deoxycholate (0.5%), SDS (1%)] for 10 minutes on ice. An equal quantity of protein from the cell lysates was resuspended in gel sample buffer, resolved by 10% SDS-PAGE, and transferred to polyvinylidene difluoride membrane membranes (Millipore Corp., Milford, MA). After blocking, membranes were incubated with specific primary antibodies and corresponding secondary antibodies. Immunoreaction signals were visualized by an enhanced chemiluminescence detection system (PerkinElmer Health Sciences, Waltham MA).

[5] = tested on: lymphatic endothelia cells (LECs); experiment: VEGF-C-induced VEGFR-3 phosphorylation, migration and proliferation in LECs (western blot, Boyden chamber, MTT); format: cell-based, human; settings: MTT (96 hrs), Figure 4A
[6] = tested on: MDA-MB-231/VEGF-C lung metastasis; experiment: Experimental metastasis assay, MDA-MB-231/VEGF-C cells by tail vein, bioluminescent imaging of lung; format: in vivo; settings: SCID mice, n=8, peptide 8 μg/g body weight i.v., one day before cells then twice weekly for 8 weeks; bioluminescence; control peptide P4; Figure 5
Experimental: All animal work was performed in accordance with protocols that were approved by the Institutional Animal Care and Use Committee of the National Health Research Institutes. All of the animal experiments were performed on 6- to 8-week-old CB-17 severe combined immunodeficient (SCID) female mice (supplied by LASCO, Taiwan) with eight animals per group. The control (P4), P5 and P6 peptides were pretreated with 8 μg/g body weight dissolved in 50 μl PBS and i.v. injected into mice one day before cancer cell injection. For experimental metastasis assays, 2.5 × 10^5 viable cells were resuspended in 0.1 mL of PBS and introduced into the circulation via tail vein injection. For the treatment, peptides were administered (8 μg/g body weight) twice weekly for 8 weeks. The luciferase-based, non-invasive bioluminescent imaging and analysis were performed with the Xenogen IVIS-200 system (Xenogen, Alameda, CA, USA).

MCF-7 cells = experiment: Sphere-forming assay (tumor initiating cells), MCF-7; format: cell-based, human; settings: peptide 200 μM, rhVEGF-C 200 ng/mL, 10 days non-adherent, Figure S5B
Experimental: as §2

A549 cells [7] = experiment: VEGF-C-induced drug resistance (Taxol, cisplatin), MTT assay; format: cell-based, human; settings: A549, peptides 200 μM, rhVEGF-C 100 ng/mL, Taxol or cisplatin; Figure S3
Experimental: A549 lung cancer cells (3×10^3) were cultured in 96-well plates and serum-starved for 24 hours. Cells were treated with the candidate peptides (200 μM) for 4 hours and were treated with rhVEGF-C (100 ng/mL) for 6 hours in serum-free medium. After 48 hours, MTT (5 mg/ml) was added for 3 hours and the precipitates were dissolved in DMSO. The absorbance at 570 nm was read with a reference wavelength of 630 nm (A570/630).

VEGFR-3 [8] = experiment: Western blot of VEGF-C-induced VEGFR-3 Tyr1063/1068 phosphorylation; format: cell-based, human; settings: A549 and 293T/VEGFR-3 cells, peptides 24 hours, rhVEGF-C, Figure 2A, 2B
Experimental: as §3

A549 cells [9] = experiment: VEGF-C-induced drug resistance (Taxol, cisplatin), DNA flow cytometric and trypan blue exclusion assays; format: cell-based, human; settings: A549, rhVEGF-C, 20 nM Taxol or 10μM cisplatin 48 hours; flow cytometry (PI) and trypan blue exclusion; Figure 3E-3H
Experimental: Briefly, cells were treated with 20 nM Taxol or 10μM cisplatin and incubated for 48 hours. Samples were prepared and analyzed as previously described.
Briefly, cells were harvested using trypsin and stained with 0.4% trypan blue dye (Sigma-Aldrich). Trypan blue-positive and -negative cells were counted using a hemacytometer (Hausser Scientific, Horsham, PA) under a phase-contrast microscope (Fisher Scientific, Pittsburgh, PA). The results of each assay were expressed in terms of the percentage of dead cells relative to the total number of cells. Individual experiments were performed in triplicate.

[10] = tested on: various cancer cell lines (MDA-MB-231, BT474, HS578T, HBL100, MDA-MB-361, MCF-7, CL1-5, H460, H322); experiment: VEGF-C-induced VEGFR-3 phosphorylation, migration and invasion in various cancer cell lines; format: cell-based, human; settings: various breast and lung cancer cell lines; Figure 4B-4E, Figure S4
Experimental: as §3
as §1, with “After 24 hours, non-migrated cells were removed with a cotton swab and the cells were fixed with methanol for 15 min and stained with crystal violet.” left out, “All migration and invasion assays were normalized to the proliferation rate.” left out

| Sequence | inhibitory effects on VEGFR-3 kinase activity [1] | levels of sVEGFR-3-bound VEGF-C (competition with VEGF-C binding) (sVEGFR-3) | expression of SOX2 (SOX2) | inhibitory effects on the phosphorylation of VEGFR-3 (KIRA-ELISA) (VEGFR-3 [2]) | migration and invasion (A549 lung cancer cells) | migration and invasion [3] | sphere formation enhanced by VEGF-C (number and size of spheres) (A549 cells [4]) | phospho-Src levels (Src) | VEGF-C-induced VEGFR-3 phosphorylation, cell migration and proliferation of LECs [5] | VEGF-C-induced lung metastasis [6] | sphere formation enhanced by VEGF-C (number and size of spheres) (MCF-7 cells) | VEGF-C-induced drug resistance by MTT assay (A549 cells [7]) | VEGF-C-induced VEGFR-3 Tyr1063/1068 phosphorylation (VEGFR-3 [8]) | VEGF-C-induced drug resistance (A549 cells [9]) | VEGF-C-induced VEGFR-3 phosphorylation, cell migration and invasion [10] |
| --- | --- | --- | --- | --- | --- | --- | --- | --- | --- | --- | --- | --- | --- | --- | --- |
| CLTSSLRSC (disulfide 1-9 (inferred)) [P8] | 49% | – | – | – | – | – | – | – | – | – | – | – | – | – | – |
| CNDSHMKLC (disulfide 1-9 (inferred)) [P4, used as control peptide in later assays] | – | reduced the levels of bound VEGF-C in a significant and dose-dependent manner | – | – | – | – | – | – | – | – | – | – | – | – | – |
| CNYSHLFYC (disulfide 1-9 (inferred)) [P5] | 82% | reduced the levels of bound VEGF-C in a significant and dose-dependent manner | decreased the expression of SOX2 | highest inhibitory effects | Obvious decreases | Obvious decreases | decreased the number and size of the spheres | decreased phospho-Src levels | abolished | significantly inhibited | decreased the number and size of the spheres | inhibit | dramatic suppressive effects | inhibit | significantly inhibited |
| CYYGQSKYC (disulfide 1-9 (inferred)) [P6] | 72% | reduced the levels of bound VEGF-C in a significant and dose-dependent manner | decreased the expression of SOX2 | highest inhibitory effects | Obvious decreases | Obvious decreases | – | decreased phospho-Src levels | abolished | significantly inhibited | – | inhibit | dramatic suppressive effects | inhibit | significantly inhibited |
| CYYWQSKYC (disulfide 1-9 (inferred)) [P7] | 69% | – | – | – | – | – | – | – | – | – | – | – | – | – | – |
